Among the data in ChEMBL document CHEMBL1201862, “PubChem BioAssay data set” (2004) are IC50, EC50 and AC50 values, retold here.

Assay [1] has as its target T1, Delta-type opioid receptor (Homo sapiens, UniProt P41143). The assay can be described thus: HTS Image-Based Screen for Antagonists of the DOR Receptor. [Related pubchem assays (depositor defined):AID1777, AID1785, AID1786, AID2133]. It is filed as functional.
A short description of assay [2]: luciferase reporter signal suppression in cells – H4 neuroglioma cells, luminescence, dose response (AID 1990). It is filed as functional, cell-based. (In a reporter assay the amount or activity of a reporter protein is the signal.)
The target in a further assay is Mu-type opioid receptor (Homo sapiens, UniProt P35372). The assay can be described thus: HTS Image-Based Screen for Agonists of the MOR Receptor. [Related pubchem assays (depositor defined):AID1777, AID1785, AID1786, AID2133]. It is filed as functional.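 Also: imaging of beta-arrestin GFP recruitment into spots after receptor activation.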
The target in assay [3] is T1, Delta-type opioid receptor. Nature of the assay: HTS Image-Based Screen for Agonists of the DOR Receptor. [Related pubchem assays (depositor defined):AID1777, AID1786, AID2133]. The class given is functional.
Assay [4] in a line: Luminescence Cell-Based Dose Response HTS to Identify Inhibitors of 5'UTR Stem-Loop Driven Prion Protein mRNA Translation in H4 Neuroglioblastoma Cells. [Related pubchem assays: 1827 (Project Summary), 1813 (Primary HTS)]. The class given is functional.
Assay [5] can be described thus: alpha-synuclein stem-loop luciferase translation blockers – H4 neuroglioma cells, luminescence, confirmation (AID 1988). It is filed as functional, cell-based.
Assay [6] can be described thus: Trypanosoma cruzi growth suppression in host cells – NIH3T3 host cells, beta-gal luminescence, confirmation (AID 2044).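 Also: intracellular parasites grown in NIH/3T3 mouse fibroblasts as host cells; luminescent beta-galactosidase reporter signal from transgenic T. cruzi replicating inside host cells; inhibitors lower the luminescence signal.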 The class given is functional, cell-based.
The target in assay [7] is T2, Kappa-type opioid receptor (Homo sapiens, UniProt P41145). It is filed as functional.
Assay [8] is described as follows: NIH3T3 cell viability loss – ATP luminescence, mouse fibroblasts, counter-screen, dose response (AID 2010).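 Also: cells exposed to compound for about 90 hours before reading.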 It is filed as functional, cell-based. (In general: The purpose of a counterscreen is to sort out artefacts and off-target activity.)
The next assay has as its target Beta-galactosidase (Escherichia coli, UniProt Q8VNN2). It is filed as functional.
Assay [9] concerns the target T3, Sphingosine 1-phosphate receptor 4 (Homo sapiens, UniProt O95977).
T3 sequence (O95977 whole entry): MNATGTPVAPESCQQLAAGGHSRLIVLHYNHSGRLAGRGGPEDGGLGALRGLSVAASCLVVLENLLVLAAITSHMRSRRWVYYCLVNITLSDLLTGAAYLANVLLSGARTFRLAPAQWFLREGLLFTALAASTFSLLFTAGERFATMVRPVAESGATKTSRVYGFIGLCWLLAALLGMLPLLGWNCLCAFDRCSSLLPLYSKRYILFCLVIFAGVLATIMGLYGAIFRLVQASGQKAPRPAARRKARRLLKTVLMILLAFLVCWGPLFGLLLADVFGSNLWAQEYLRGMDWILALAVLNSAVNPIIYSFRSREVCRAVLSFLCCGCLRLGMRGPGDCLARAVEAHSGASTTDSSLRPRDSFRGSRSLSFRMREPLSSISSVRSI
The assay can be described thus: Fluorescence dose response cell-based high throughput screening assay for antagonists of the Sphingosine 1-Phosphate Receptor 4 (S1P4). [Related pubchem assays: 1524 (Confirmation in triplicates.), 1510 (Primary screen.)]. The class given is functional.

Assay [10] concerns the target T2, Kappa-type opioid receptor. The class given is functional. This is another data set of the same source.
Assay [11] addresses Sphingosine 1-phosphate receptor 1 (Homo sapiens, UniProt P21453). The class given is functional.
Assay [12] addresses T4, Microphthalmia-associated transcription factor (Homo sapiens, UniProt O75030).
T4 sequence (O75030 whole entry): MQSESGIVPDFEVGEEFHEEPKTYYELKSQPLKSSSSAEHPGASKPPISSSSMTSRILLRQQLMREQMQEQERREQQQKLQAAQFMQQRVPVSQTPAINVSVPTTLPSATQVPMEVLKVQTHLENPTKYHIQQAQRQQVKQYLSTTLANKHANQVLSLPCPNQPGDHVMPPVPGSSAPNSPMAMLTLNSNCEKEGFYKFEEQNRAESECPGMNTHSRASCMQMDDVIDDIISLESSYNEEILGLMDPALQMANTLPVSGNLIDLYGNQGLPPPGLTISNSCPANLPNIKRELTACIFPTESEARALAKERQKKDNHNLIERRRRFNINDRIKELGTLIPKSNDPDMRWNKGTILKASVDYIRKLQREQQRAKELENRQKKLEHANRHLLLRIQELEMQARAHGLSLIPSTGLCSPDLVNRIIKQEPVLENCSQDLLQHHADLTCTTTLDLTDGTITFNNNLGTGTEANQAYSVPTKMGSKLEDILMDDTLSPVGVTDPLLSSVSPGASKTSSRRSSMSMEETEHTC
Nature of the assay: reducers of TRPM1 reporter luminescence, concentration series – cell-based, SK-MEL-5, cherry-picked, set 3, MITF inhibitor project, dose response (AID 493073).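 Also: SK-MEL-5 melanoma cells with luciferase driven by the MITF target TRPM1 promoter.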 The class given is functional.

Assay [13] has as its system A-375. The assay can be described thus: MITF: Counter assay: A375 proliferation Measured in Cell-Based System Using Plate Reader - 2084-03_Inhibitor_Dose_DryPowder_Activity. [Related pubchem assays (depositor defined):AID488944]. Particulars: Homo sapiens. It is filed as functional.
The subject of assay [14] is A-375. The assay can be described thus: proliferation inhibition in MITF-low A375 cells – cell-based, cherry-pick samples, set 2, counter-screen for MITF modulator project, dose response (AID 540335). Particulars: Homo sapiens. It is filed as functional.
A short description of assay [15]: A549 cell cytotoxicity, dose response, cytotoxicity control, plate reader, cherry-pick, antagonist series (AID 743412). The class given is functional, cell-based.
Assay [16] can be described thus: toxicity toward HepG2 liver cells – cell-based, plate reader, cherry-pick, antagonist series, cytotoxicity control, dose response (AID 743416). It is filed as functional.
Assay [17] is described as follows: blockers of bursicon-stimulated LGR2 cAMP reporter – cell-based, HEK293, CRE-luciferase reporter, cherry pick, set 2, dose response (AID 743343).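 Also: transfected cells were stimulated with diluted bursicon conditioned medium after compound addition.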 It is filed as functional.
A short description of assay [18]: blockade of melanocortin 4 receptor signaling – cell-based, plate reader, cherry pick, counter-screen for LGR2 antagonist project, dose response (AID 743444).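 Also: transfected HEK 293 cells stimulated with alpha-MSH peptide; potency of inhibitors of the alpha-MSH evoked signal.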 It is filed as functional.
Assay [19] is described as follows: viability loss in HEK293 cells – cell-based, plate reader, cherry-picked samples, cytotoxicity control, dose response (AID 743446). It is filed as functional.
Assay [20] addresses Protein-arginine deiminase type-4 (Homo sapiens, UniProt Q9UM07). The assay can be described thus: IC50 against protein arginine deiminase 4 – biochemical, fluorescence readout, dose response (AID 492970).
For assay [21], the target named is T5, Replicative DNA helicase DnaB (Mycobacterium tuberculosis, UniProt P9WMR3).
T5 sequence (P9WMR3 whole entry): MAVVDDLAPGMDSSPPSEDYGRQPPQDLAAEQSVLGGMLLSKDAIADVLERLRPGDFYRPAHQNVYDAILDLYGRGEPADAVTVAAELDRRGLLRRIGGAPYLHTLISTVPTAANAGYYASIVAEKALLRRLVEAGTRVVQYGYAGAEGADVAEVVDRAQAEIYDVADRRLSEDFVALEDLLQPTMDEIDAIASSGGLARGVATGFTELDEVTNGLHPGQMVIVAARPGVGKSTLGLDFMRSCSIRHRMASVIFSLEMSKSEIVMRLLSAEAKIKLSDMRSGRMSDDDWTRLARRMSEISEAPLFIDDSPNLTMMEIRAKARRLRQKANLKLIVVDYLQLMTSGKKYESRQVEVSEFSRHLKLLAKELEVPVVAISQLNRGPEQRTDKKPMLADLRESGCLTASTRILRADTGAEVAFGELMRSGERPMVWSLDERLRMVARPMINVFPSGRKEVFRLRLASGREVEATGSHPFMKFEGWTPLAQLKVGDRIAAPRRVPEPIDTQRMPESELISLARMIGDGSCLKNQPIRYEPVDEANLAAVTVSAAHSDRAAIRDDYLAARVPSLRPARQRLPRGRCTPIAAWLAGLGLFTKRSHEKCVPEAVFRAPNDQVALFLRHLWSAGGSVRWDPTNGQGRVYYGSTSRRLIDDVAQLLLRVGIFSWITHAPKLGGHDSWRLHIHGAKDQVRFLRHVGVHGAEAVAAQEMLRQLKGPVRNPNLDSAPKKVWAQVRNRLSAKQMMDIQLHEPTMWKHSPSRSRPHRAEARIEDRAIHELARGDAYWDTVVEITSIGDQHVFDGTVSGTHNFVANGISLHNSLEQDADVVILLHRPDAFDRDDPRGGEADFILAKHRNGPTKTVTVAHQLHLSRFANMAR
Nature of the assay: DnaB intein splicing inhibitors, dose response, biochemical, cell-free fluorescence (AID 449749). It is filed as functional.

The target in the next assay is T6, Protein RecA (Mycobacterium tuberculosis, UniProt P9WHJ3).
T6 sequence (P9WHJ3 whole entry): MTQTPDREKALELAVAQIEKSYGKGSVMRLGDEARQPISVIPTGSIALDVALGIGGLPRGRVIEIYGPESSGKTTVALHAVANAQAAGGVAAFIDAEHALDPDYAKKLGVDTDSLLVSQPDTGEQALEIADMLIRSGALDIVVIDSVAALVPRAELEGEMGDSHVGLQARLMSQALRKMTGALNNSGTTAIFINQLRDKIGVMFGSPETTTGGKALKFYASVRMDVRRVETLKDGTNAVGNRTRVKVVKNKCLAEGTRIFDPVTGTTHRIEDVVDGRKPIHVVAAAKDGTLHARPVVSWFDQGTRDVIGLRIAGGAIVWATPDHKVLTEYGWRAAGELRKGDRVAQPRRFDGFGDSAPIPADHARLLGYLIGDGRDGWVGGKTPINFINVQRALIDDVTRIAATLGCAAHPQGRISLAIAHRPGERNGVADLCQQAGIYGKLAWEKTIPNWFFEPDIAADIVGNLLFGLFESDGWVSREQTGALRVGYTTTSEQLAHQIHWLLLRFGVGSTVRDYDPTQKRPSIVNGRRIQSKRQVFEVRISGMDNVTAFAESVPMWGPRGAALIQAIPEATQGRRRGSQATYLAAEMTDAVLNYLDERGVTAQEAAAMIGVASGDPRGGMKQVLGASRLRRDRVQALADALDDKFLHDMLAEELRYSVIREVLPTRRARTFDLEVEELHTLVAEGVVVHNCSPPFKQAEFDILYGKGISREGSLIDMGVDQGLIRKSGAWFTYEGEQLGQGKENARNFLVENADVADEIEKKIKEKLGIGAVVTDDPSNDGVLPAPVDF
The assay can be described thus: Fluorescence Cell-Free Homogeneous Dose Retest to Identify Inhibitors of RecA-Intein Splicing Activity. [Related pubchem assays (depositor defined):AID2097, AID2223, AID489010, AID492950]. It is filed as functional.

The nature of assay [22]: reduction of Shn3 3'UTR-driven luciferase in osteoblasts – cell-based, Clone20 osteoblasts, firefly luciferase, cherry-picked, dose response (AID 624132).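 Also: firefly luciferase luminescence from reporter carrying the Shn3 3'UTR in osteoblasts.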 It is filed as functional.
Assay [23] can be described thus: loss of viability in HepG2 cells – cell-based, CellTiter-Glo, cherry-picked, cytotoxicity control for Shn3 inhibitor project, dose response (AID 624134). It is filed as functional. A general note: ATP-based viability assays read luminescence as a measure of living cells.
A short description of assay [24]: non-specific 3'UTR reporter inhibition in Clone20-Shn3RL – cell-based, Renilla luciferase, cherry-picked, counter-screen for Shn3 inhibitor project, dose response (AID 624133). It is filed as functional.
The target in another assay is T7, Caspase-6 (Homo sapiens, UniProt P55212).
T7 sequence (P55212 whole entry): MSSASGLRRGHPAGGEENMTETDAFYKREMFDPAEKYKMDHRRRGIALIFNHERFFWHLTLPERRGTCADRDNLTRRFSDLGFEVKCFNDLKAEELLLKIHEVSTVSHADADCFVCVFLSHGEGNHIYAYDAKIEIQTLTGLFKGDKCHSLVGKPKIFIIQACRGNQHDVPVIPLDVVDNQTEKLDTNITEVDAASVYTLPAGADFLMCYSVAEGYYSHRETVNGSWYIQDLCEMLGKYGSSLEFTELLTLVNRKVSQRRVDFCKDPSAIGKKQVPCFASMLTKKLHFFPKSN
The assay can be described thus: inhibition of CASP6 peptide cleavage – biochemical, VEID-R110 fluorescence, cherry-pick, dose response (AID 720632).

A short description of assay [25]: rise of 2N DNA cells, HeLa – IC50, dose response (AID 1117349). It is filed as functional, cell-based.
Assay [26] can be described thus: rise of 4N DNA cells, HeLa – IC50, dose response (AID 1117351). It is filed as functional, cell-based.

Structures can show the parent of a compound that is named as a salt. Active and inactive are the calls of the source.

T1 sequence (P41143 whole entry): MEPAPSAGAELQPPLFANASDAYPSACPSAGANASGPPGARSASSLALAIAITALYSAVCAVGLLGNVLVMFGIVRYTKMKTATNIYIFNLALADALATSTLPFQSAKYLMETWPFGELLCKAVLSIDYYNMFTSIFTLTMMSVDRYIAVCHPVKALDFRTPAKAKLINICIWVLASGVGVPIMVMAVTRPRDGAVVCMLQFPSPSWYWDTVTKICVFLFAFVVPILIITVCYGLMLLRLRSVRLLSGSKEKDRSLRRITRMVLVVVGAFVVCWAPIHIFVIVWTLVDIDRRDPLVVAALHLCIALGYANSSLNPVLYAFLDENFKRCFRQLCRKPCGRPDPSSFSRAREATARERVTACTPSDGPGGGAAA
T2 sequence (P41145 whole entry): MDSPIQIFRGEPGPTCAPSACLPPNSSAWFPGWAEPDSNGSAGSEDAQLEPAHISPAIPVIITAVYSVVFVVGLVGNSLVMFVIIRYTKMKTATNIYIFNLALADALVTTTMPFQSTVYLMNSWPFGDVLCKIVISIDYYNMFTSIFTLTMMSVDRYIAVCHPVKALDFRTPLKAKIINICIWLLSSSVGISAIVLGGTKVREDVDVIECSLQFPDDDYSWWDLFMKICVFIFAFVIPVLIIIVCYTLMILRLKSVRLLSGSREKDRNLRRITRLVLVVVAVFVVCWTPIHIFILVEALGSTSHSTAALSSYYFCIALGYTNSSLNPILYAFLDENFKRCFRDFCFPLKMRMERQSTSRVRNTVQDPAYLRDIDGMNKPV
Chain of Mu-type opioid receptor (P35372 whole entry): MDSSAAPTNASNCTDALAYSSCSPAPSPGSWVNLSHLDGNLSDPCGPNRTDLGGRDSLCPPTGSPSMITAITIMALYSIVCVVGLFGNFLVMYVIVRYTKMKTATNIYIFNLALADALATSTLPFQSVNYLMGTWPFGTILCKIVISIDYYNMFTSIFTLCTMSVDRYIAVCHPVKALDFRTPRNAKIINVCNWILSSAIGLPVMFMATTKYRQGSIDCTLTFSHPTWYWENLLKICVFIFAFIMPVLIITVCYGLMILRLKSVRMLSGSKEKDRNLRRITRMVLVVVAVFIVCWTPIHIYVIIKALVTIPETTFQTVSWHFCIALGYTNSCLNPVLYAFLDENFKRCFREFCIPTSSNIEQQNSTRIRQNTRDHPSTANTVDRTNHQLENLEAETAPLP
Chain of Beta-galactosidase (Q8VNN2 whole entry): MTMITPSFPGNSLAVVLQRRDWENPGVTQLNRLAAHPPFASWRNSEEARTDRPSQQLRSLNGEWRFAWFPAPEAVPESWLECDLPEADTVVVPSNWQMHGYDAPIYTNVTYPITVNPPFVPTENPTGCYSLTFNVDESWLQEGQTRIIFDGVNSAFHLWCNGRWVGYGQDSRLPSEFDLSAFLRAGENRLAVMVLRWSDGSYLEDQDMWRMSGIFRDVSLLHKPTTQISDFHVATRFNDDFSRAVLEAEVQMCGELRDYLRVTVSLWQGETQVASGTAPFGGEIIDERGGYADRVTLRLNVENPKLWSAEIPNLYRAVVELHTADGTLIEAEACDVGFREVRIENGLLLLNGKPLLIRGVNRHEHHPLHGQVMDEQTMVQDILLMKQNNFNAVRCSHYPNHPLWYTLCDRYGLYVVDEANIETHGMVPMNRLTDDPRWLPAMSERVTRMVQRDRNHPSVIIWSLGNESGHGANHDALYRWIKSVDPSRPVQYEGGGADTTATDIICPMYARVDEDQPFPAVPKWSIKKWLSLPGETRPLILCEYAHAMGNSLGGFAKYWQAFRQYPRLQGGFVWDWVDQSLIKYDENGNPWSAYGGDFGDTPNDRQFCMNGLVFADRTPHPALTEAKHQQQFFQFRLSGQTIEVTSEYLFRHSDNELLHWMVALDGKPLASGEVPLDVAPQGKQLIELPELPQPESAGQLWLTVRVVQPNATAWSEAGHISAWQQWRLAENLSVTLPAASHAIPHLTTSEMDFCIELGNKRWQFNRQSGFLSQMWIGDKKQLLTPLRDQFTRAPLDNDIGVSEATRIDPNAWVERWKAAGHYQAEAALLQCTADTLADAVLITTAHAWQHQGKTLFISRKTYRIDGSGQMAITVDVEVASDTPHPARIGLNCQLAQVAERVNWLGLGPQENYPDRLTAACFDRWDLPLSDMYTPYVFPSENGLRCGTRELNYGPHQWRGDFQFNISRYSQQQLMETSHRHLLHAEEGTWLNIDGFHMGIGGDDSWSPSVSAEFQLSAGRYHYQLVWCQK
Chain of Protein-arginine deiminase type-4 (Q9UM07 whole entry): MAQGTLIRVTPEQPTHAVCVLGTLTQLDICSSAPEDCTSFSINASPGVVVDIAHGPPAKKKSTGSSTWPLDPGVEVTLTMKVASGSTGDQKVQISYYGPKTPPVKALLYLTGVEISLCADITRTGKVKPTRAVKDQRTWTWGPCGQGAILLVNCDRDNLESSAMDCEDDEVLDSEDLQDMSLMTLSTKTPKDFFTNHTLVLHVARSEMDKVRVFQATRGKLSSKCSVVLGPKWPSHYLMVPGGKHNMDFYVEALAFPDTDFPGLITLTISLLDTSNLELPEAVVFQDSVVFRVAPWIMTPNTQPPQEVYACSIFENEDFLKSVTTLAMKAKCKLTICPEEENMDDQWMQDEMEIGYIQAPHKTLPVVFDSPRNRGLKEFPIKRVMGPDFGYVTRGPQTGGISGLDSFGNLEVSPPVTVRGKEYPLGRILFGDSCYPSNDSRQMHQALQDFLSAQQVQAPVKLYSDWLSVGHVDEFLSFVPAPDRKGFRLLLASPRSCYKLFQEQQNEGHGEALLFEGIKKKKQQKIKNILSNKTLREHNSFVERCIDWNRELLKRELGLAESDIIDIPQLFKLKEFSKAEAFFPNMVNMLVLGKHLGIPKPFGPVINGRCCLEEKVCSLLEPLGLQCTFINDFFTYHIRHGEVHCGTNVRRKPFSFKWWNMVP
Chain of Sphingosine 1-phosphate receptor 1 (P21453 whole entry): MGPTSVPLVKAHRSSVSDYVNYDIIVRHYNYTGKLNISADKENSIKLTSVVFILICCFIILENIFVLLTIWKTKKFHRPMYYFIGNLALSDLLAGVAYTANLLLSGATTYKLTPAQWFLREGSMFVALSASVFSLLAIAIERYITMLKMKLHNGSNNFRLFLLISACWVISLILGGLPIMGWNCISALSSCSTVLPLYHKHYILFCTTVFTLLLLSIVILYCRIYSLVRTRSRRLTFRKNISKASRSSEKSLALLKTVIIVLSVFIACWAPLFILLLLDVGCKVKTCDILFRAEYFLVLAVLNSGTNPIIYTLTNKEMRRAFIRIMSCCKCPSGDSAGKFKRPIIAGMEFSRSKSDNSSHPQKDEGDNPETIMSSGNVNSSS

A word on the IC50: it is the midpoint of a concentration-inhibition curve. Broadly, the EC50 is the concentration at which the effect is half-maximal. What is called AC50 is the concentration at which the activity in the assay is half-maximal. `O=C(Cn1ncc(Cl)c(Cl)c1=O)N1CCc2ccccc21`: the IC50 in assay [1] is 14.7 µM (inactive); in [7], 5.51 µM (active); in [9] it was 1.64 µM (active); in assay [10], 2.85 µM; in [11] it was 5.51 µM (active). In addition, the EC50 was 8.12 µM (active) in assay [2]; > 32 µM (inactive) at Mu-type opioid receptor; > 32 µM (inactive) in [3]; 7.57 µM (active) in assay [4]; > 120 µM (not active) in assay [5]; 2.46 µM (active) in [6]. In addition, the EC50 in [8] is 4.51 µM (active); on Beta-galactosidase it was > 31.5 µM (inactive). The AC50 in [12] was 6.1 µM (active); in the assay with A-375 [13], > 35 µM (active); with A-375 [14] it was > 35 µM (active); in assay [15] it was 7.68 µM (active); in assay [16] it was 16.3 µM (active); in [17] it was 7.11 µM (active). In addition, the AC50 in [18] was 8.77 µM (active); in assay [19] it was 4.3 µM (active).
Turning to `COc1ccc(Cc2nccc3cc(OC)c(OC)cc23)cc1OC` [PAPAVERINE HYDROCHLORIDE], the IC50 is 39 µM (inactive) in assay [20], > 10 µM (inactive) in assay [25] and > 10 µM (inactive) in assay [26]. In addition, the AC50 in [21] is 5.66 µM (active); in assay [22], 2.48 µM (active); in assay [23], 8.06 µM (active); in assay [24] it was 20.8 µM (active); on Caspase-6, 22 µM (active). Moreover, at Protein RecA, the EC50 was 3.01 µM (active).
